Reference: ChEMBL document CHEMBL2163289, “The discovery of N-[5-(4-bromophenyl)-6-[2-[(5-bromo-2-pyrimidinyl)oxy]ethoxy]-4-pyrimidinyl]-N'-propylsulfamide (Macitentan), an orally active, potent dual endothelin receptor antagonist” (J Med Chem, 2012)
Active and inactive are the calls of the source. No cut-off for these calls is given here.

Legend:
[1] = Oral bioavailability in beagle dog at 10 mg/kg; assay type: ADME, organism-based, Canis lupus familiaris; settings: in vivo
[2] = Volume of distribution at steady state in beagle dog at 1 mg/kg, iv; assay type: ADME, organism-based, Canis lupus familiaris; design: dose 1 mg/kg, route intravenous; settings: in vivo, read-out: Vdss
Rattus norvegicus [3] = experiment: Toxicity in telemeterized hypertensive Dahl salt-sensitive rat assessed as tachyphylaxis at 1 mg/kg, po administered QD for 5 days; assay type: organism-based; design: dose 1 mg/kg, route oral; settings: in vivo, 120 h
Rattus norvegicus [4] = experiment: Antihypertensive activity in telemeterized hypertensive Dahl salt-sensitive rat assessed as duration of mean arterial blood pressure lowering action at 3 mg/kg, po; assay type: functional, Artery
Rattus norvegicus [5] = organism: Rattus norvegicus; experiment: Toxicity in rat assessed as inhibition of bile salt transport; assay type: organism-based; settings: in vivo
Rattus norvegicus [6] = experiment: Antihypertensive activity in telemeterized hypertensive Dahl salt-sensitive rat assessed as reduction in mean arterial blood pressure at 1 mg/kg, po administered QD for 5 days; assay type: functional, Artery
[7] = Tmax in beagle dog at 10 mg/kg, po; assay type: ADME, organism-based, Canis lupus familiaris; design: dose 10 mg/kg, route oral; settings: in vivo
Endothelin-1 receptor = target: T1, Endothelin-1 receptor (Homo sapiens, UniProt P25101); experiment: Displacement of [I125]ET1 from recombinant ETA receptor expressed in CHO cells after 2 hrs by TopCount analysis; assay type: cell-based
T1 sequence (P25101 whole entry): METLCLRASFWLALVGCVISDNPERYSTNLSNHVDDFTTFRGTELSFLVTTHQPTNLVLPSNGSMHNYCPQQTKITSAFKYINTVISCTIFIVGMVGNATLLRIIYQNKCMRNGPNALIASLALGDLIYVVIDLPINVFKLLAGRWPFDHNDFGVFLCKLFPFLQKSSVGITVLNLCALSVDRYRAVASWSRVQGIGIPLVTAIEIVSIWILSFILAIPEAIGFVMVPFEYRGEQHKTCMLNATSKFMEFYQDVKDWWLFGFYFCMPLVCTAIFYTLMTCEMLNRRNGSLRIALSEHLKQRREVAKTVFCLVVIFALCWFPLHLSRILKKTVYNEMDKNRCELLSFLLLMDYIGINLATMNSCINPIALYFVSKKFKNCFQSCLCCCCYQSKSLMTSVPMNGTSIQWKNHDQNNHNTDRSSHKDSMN

[8] = Half life in Wistar rat at 1 mg/kg, iv; assay type: ADME, organism-based; design: dose 1 mg/kg, route intravenous; settings: in vivo
[9] = Volume of distribution at steady state in Wistar rat at 1 mg/kg, iv; assay type: ADME, organism-based; design: dose 1 mg/kg, route intravenous; settings: in vivo, read-out: Vdss
[10] = Half life in beagle dog at 1 mg/kg, iv; assay type: ADME, organism-based, Canis lupus familiaris; design: dose 1 mg/kg, route intravenous; settings: in vivo
[11] = Clearance in beagle dog at 1 mg/kg, iv; assay type: ADME, organism-based, Canis lupus familiaris; design: dose 1 mg/kg, route intravenous; settings: in vivo
[12] = Cmax in beagle dog at 10 mg/kg, po; assay type: ADME, organism-based, Canis lupus familiaris; design: dose 10 mg/kg, route oral; settings: in vivo
[13] = Cmax in Wistar rat at 10 mg/kg, po; assay type: ADME, organism-based; design: dose 10 mg/kg, route oral; settings: in vivo
Rattus norvegicus [14] = experiment: Antihypertensive activity in telemeterized hypertensive Dahl salt-sensitive rat assessed as reduction in mean arterial blood pressure at 1 mg/kg, po administered QD for 5 days measured 48 hrs post last-dose; settings: Artery
Rattus norvegicus [15] = experiment: Effect on heart rate in telemeterized hypertensive Dahl salt-sensitive rat at 1 to 100 mg/kg, po
[16] = AUC (0 to infinity) in beagle dog at 1 mg/kg, iv; assay type: ADME, organism-based, Canis lupus familiaris; design: dose 1 mg/kg, route intravenous, time infinity; settings: plasma
[17] = AUC (0 to infinity) in Wistar rat at 1 mg/kg, iv; assay type: ADME, organism-based; design: time infinity, dose 1 mg/kg, route intravenous; settings: plasma
[18] = Clearance in Wistar rat at 1 mg/kg, iv; assay type: ADME, organism-based; design: dose 1 mg/kg, route intravenous; settings: in vivo
[19] = Oral bioavailability in Wistar rat at 10 mg/kg; assay type: ADME, organism-based; settings: in vivo
Rattus norvegicus [20] = experiment: Antihypertensive activity in telemeterized hypertensive Dahl salt-sensitive rat assessed as reduction in mean arterial blood pressure at 3 mg/kg, po measured over 6 hrs; assay type: functional, Artery
Rattus norvegicus [21] = experiment: Antihypertensive activity in po dosed telemeterized hypertensive Dahl salt-sensitive rat assessed as reduction in mean arterial blood pressure; settings: Artery
Rattus norvegicus [22] = organism: Rattus norvegicus; experiment: Drug metabolism in Wistar rat assessed as N-[5-(4-Bromophenyl)-6-[2-[(5-bromo-2-pyrimidinyl)oxy]ethoxy]-4-pyrimidinyl]-sulfamide formation; assay type: ADME, organism-based; settings: in vivo
[23] = AUC (0 to infinity) in Wistar rat at 10 mg/kg, po; assay type: ADME, organism-based; design: time infinity, dose 10 mg/kg, route oral; settings: plasma
Canis familiaris = organism: Canis familiaris; experiment: Drug metabolism in beagle dog assessed as N-[5-(4-Bromophenyl)-6-[2-[(5-bromo-2-pyrimidinyl)oxy]ethoxy]-4-pyrimidinyl]-sulfamide formation; assay type: ADME, organism-based, Canis lupus familiaris; settings: in vivo
[24] = Tmax in Wistar rat at 10 mg/kg, po; assay type: ADME, organism-based; design: dose 10 mg/kg, route oral; settings: in vivo
[25] = AUC (0 to infinity) in beagle dog at 10 mg/kg, po; assay type: ADME, organism-based, Canis lupus familiaris; design: time infinity, dose 10 mg/kg, route oral; settings: plasma
Rattus norvegicus [26] = experiment: Antihypertensive activity in telemeterized hypertensive Dahl salt-sensitive rat assessed as reduction in mean arterial blood pressure at 100 mg/kg, po measured over 6 hrs; assay type: functional, Artery
Rattus norvegicus [27] = experiment: Antihypertensive activity in telemeterized hypertensive Dahl salt-sensitive rat assessed as duration of mean arterial blood pressure lowering action at 100 mg/kg, po; assay type: functional, Artery
Rattus norvegicus [28] = experiment: Effect on heart rate in telemeterized hypertensive Dahl salt-sensitive rat at 3 mg/kg, po

CCCNS(=O)(=O)Nc1ncnc(OCCOc2ncc(Br)cn2)c1-c1ccc(Br)cc1
bioavailability [1]: 87% | Vd [2]: 0.9 L/kg | Activity (Rattus norvegicus [3]): Non-toxic | Time (Rattus norvegicus [4]): 60 h | Activity (Rattus norvegicus [5]): Non-toxic | MPE (Rattus norvegicus [6]): 20 mmHg | Tmax [7]: 2 h | IC50 (Endothelin-1 receptor): 0.5 nM | half-life [8]: 5.1 h | Vd [9]: 1.8 L/kg | half-life [10]: 4.1 h | clearance [11]: 5.4 mL/min/kg | Cmax [12]: 4590 ng/mL | Cmax [13]: 1670 ng/mL | Activity (Rattus norvegicus [14]): Active | Activity (Rattus norvegicus [15]): inactive | AUC(0-inf) [16]: 3170 ng·h/mL | AUC(0-inf) [17]: 2680 ng·h/mL | clearance [18]: 6.7 mL/min/kg | bioavailability [19]: 69% | Fall in mean arterial blood pressure (Rattus norvegicus [20]): 25 mmHg | Activity (Rattus norvegicus [21]): Dose-dependent effect | Drug metabolism (Rattus norvegicus [22]): Active | AUC(0-inf) [23]: 18500 ng·h/mL | Drug metabolism (Canis familiaris): Active | Tmax [24]: 6 h | AUC(0-inf) [25]: 27500 ng·h/mL

COc1ccccc1Oc1c(NS(=O)(=O)c2ccc(C(C)(C)C)cc2)nc(-c2ncccn2)nc1OCCO [BOSENTAN]
Time (Rattus norvegicus [4]): 15 h | MPE (Rattus norvegicus [26]): 30 mmHg | Fall in mean arterial blood pressure (Rattus norvegicus [20]): 7 mmHg | Time (Rattus norvegicus [27]): 72 h | Activity (Rattus norvegicus [28]): inactive
